# According to US11028075B2, “Therapeutic compounds and methods of use thereof” (GENENTECH, INC., priority 2018, dated 2021):
# Where a name gives a salt, the structure may show the parent alone.
# Key:
# hNav1.7 [1] = target: T1, hNav1.7 (Homo sapiens (Human), UniProt Q15858); assay: Tritiated compound binding to membranes from cells heterologously expressing hNav1.7 and the β1 subunit (Nav1.7 LBA); settings: competitive binding vs [3H]compound, membranes with hNav1.7 and β1 subunit; read-out: Nav1.7 LBA EVO IC50
# Experimental: Example 93A. Tritiated Compound Binding to Membranes Isolated from Cells that Heterologously Express hNav1.7 and the β1 Subunit
# Preparation of membranes containing recombinantly expressed sodium channels: Frozen recombinant cell pellets are thawed on ice and diluted to 4 times the cell pellet weight with ice cold 50 mM Tris HCl, pH 7.4 buffer. The cell suspensions are homogenized on ice using a motorized glass dounce homogeniser. Homogenates are further diluted 8.4 times with ice cold 50 mM Tris HCl, pH 7.4 buffer and then centrifuged at 200×g at 4° C. for 15 minutes. The supernatants are collected and centrifuged at 10000×g at 4° C. for 50 min. The pellets are then re-suspended in 100 mM NaCl, 20 mM Tris HCl, pH 7.4 buffer containing 1% v/v protease inhibitors (Calbiochem) and re-homogenized on ice. The homogenized membranes are then processed through a syringe equipped with a 26 gauge needle. Protein concentrations arer determined by Bradford Assay and the membranes are stored at −80° C.
# Saturation experiments. A competitive NaV1.7 inhibitor having a methyl group is tritiated. Three tritiums are incorporated in place of methyl hydrogens to generate [^3H]compound. Binding of this radioligand is performed in 5 mL borosilicate glass test tubes at room temperature. Binding is initiated by adding membranes to increasing concentrations of [^3H]compound in 100 mM NaCl, 20 mM Tris HCl, pH 7.4 buffer containing 0.01% w/v bovine serum albumin (BSA) for 18 h. Non-specific binding is determined in the presence of 1 μM unlabeled compound. After 18 h, the reactants are filtered through GF/C glass fiber filters presoaked in 0.5% w/v polyethylene imine. Filters are washed with 15 mL ice cold 100 mM NaCl, 20 mM Tris HCl, pH7.4 buffer containing 0.25% BSA to separate bound from free ligand. [^3H]compound bound to filters is quantified by liquid scintillation counting.
# Binding reactions are performed in 96-well polypropylene plates at room temperature for 18 h. In 360 μL, membranes are incubated with […] [^3H]compound and increasing concentrations of Test Compound. Non-specific binding is defined in the presence of 1 μM unlabeled compound. Reactions are transferred and filtered through 96-well glass fiber/C filter plates presoaked with 0.5% polyethylene imine. The filtered reactions are washed 5 times with 200 μL ice cold buffer containing 0.25% BSA. Bound radioactivity is determined by liquid scintillation counting.
# Data Analysis: For saturation experiments, non-specific binding is subtracted from total binding to provide specific binding and these values are recalculated in terms of pmol ligand bound per mg protein. Saturation curves are constructed and dissociation constants are calculated using the single site ligand binding model: Beq=(Bmax*X)/(X+Kd), where Beq is the amount of ligand bound at equilibrium, Bmax is the maximum receptor density, Kd is the dissociation constant for the ligand, and X is the free ligand concentration. For competition studies percent inhibition is determined and IC50 values are calculated using a 4 parameter logistic model (% inhibition=(A+((B−A)/(1+((x/C)^D)))) using XLfit, where A and B are the maximal and minimum inhibition respectively, C is the IC50 concentration and D is the (Hill) slope.
# Example 93B. Tritiated Compound Binding to Membranes Isolated from Cells that Heterologous Express hNav1.7 and the β1 Subunit
# Following the procedure described in Example 93A, and making modifications as required to: centrifuge supernatants at 100000×g instead of 10000×g; re-suspend pellets in a buffer containing 0.01% BSA in addition to 100 mM NaCl, 20 mM Tris HCl, pH 7.4 buffer, and 1% v/v proteasome inhibitors; and storing membranes at −80° C. in single use aliquots instead of pooled. […]
# Target sequence in this assay (Q15858 whole entry, looked up): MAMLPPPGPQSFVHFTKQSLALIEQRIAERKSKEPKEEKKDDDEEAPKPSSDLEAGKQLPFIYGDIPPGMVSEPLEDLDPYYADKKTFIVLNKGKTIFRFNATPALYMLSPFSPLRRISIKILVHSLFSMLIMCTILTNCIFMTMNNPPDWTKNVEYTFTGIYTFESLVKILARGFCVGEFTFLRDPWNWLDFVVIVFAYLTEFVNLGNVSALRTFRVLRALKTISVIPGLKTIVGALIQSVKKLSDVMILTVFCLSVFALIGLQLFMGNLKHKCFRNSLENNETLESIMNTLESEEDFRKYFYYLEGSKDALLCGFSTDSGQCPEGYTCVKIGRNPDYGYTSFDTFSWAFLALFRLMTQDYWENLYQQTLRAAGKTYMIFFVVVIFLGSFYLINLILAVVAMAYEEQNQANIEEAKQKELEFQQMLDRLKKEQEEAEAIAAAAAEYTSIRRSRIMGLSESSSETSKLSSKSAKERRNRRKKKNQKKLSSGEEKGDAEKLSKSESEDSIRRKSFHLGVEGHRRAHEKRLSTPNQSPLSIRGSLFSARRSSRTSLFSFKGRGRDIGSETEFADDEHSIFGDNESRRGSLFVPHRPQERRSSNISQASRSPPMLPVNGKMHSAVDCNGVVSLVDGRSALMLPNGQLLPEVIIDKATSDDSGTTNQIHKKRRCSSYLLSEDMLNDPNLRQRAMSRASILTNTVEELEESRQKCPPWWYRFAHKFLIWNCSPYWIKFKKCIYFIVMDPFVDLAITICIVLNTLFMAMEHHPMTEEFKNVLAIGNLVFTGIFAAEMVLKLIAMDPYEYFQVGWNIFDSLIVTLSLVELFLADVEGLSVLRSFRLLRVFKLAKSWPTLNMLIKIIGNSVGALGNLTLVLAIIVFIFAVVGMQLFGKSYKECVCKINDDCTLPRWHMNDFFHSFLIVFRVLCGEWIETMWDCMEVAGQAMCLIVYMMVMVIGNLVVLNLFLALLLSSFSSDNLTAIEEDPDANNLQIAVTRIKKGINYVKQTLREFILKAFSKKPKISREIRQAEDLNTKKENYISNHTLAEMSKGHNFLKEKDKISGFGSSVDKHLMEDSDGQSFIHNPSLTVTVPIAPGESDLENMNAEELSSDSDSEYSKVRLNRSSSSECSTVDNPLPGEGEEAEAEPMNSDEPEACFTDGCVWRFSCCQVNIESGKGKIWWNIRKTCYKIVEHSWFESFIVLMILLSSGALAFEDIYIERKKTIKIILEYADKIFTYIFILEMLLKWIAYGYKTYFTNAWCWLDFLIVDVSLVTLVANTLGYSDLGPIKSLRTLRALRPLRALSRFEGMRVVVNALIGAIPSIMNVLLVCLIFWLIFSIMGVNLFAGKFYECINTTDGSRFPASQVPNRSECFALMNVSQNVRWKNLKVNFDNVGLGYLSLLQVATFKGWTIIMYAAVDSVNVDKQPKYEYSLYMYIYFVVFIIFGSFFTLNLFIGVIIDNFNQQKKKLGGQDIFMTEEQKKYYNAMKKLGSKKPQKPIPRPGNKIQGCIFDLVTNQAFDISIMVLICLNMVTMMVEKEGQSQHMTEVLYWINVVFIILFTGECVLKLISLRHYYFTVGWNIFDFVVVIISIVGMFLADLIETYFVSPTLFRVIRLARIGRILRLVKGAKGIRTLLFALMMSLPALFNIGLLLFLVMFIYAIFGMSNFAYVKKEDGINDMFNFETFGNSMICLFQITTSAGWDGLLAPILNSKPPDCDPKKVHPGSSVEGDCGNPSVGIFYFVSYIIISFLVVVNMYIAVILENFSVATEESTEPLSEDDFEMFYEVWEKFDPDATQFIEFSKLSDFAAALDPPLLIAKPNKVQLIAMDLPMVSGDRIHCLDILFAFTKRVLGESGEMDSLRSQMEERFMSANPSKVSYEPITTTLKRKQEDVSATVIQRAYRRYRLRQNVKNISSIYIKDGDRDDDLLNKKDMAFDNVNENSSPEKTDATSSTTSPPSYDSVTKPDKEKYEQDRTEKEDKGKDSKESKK
# Target sequence in this assay (Q07699 whole entry partner, looked up): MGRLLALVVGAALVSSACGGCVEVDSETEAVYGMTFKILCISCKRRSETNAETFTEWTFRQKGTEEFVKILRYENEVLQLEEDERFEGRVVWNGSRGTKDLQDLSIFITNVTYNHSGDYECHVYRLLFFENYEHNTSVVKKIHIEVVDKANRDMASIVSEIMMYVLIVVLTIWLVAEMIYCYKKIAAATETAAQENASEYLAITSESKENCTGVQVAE
# hNav1.7 [2] = target: T1, hNav1.7; assay: Electrophysiological assay (EP), voltage clamp on Syncropatch 384PE, CHO cells stably expressing Nav1.7; assay type: cell-based; settings: holding potential −50 mV, 7.5 min compound incubation, read-out: EP_SP hNav1.7 EVO IC50
# From the text: Example 93C. Electrophysiological Assay (EP) (In Vitro Assay)
# Patch voltage clamp electrophysiology allows for the direct measurement and quantification of block of voltage-gated sodium channels (NaV's), and allows the determination of the time- and voltage-dependence of block which has been interpreted as differential binding to the resting, open, and inactivated states of the sodium channel (Hille, B., Journal of General Physiology (1977), 69: 497-515).
# The following voltage clamp electrophysiology studies are performed on representative compounds using cells heterologously expressing Nav1.7 or Nav1.5 channels. cDNAsfor Nav1.7 (NM_002977) and Nav1.5 (AC137587) are stably expressed in Chinese Hamstr Ovary (CHO) cells and CHL (Chinese Hamster Lung) cells respectively. Sodium currents are measured in the whole-cell configuration using Syncropatch 384PE (Nanlon Technologies, Germany). 1NPC®-384 chips with custom medium resistance and single hole mode are used. Internal solution consists of (in mM): […], 10 […], 20 EGTA, and 10 Hepes (pH adjusted to 7.2); and external solution contains (in mM): 60 NMDG, 80 NaCl, 4 KCl, 1 MgCl2, 2 CaCl2, 2 D-Glucose monohydrate, 10 Hepes (pH adjusted to 7.4 with NaOH).
# After system flushing, testing compounds are dissolved in external solution containing 0.1% Pluronic F-127. The chip is moved into the measuring head and the instrument primes the chip with external and internal solutions. 10 μl cells are added to the chip from a cell hotel, and a negative pressure of −50 mBar is applied to form a seal. Following treatment with seal enhancer solution and wash-off with external solution, negative pressure of −250 mbar is applied for 1 second to achieve the whole-cell configuration, followed by three washing steps in external solution. 20 μl of compounds is added to 40 μl in each well (1:3 dilution of compounds), and after mixing, 20 μl is removed so the volume is retained at 40 μl. After approximately 13 minutes recordings, 20 μl/well of 2 uM TTX, or 333 uM Tetracaine (for Nav1.5) is added to achieve full block.
# For voltage protocol, an holding potential of −50 mV is applied during the whole experiment. A depolarizing step is applied to −10 mV for 10 ms, followed by a hyperpolarization step to −150 mV for 20 ms to allow channel recovery from inactivation. A second depolarizing step is applied from −150 mV to −10 mV for 10 ms, where currents are measured to derive blocking effects of compounds. Inhibition is determined based on 7.5 min of compound incubation.
# Target sequence in this assay (Q15858 other isoform, or with tags, fused parts or gaps): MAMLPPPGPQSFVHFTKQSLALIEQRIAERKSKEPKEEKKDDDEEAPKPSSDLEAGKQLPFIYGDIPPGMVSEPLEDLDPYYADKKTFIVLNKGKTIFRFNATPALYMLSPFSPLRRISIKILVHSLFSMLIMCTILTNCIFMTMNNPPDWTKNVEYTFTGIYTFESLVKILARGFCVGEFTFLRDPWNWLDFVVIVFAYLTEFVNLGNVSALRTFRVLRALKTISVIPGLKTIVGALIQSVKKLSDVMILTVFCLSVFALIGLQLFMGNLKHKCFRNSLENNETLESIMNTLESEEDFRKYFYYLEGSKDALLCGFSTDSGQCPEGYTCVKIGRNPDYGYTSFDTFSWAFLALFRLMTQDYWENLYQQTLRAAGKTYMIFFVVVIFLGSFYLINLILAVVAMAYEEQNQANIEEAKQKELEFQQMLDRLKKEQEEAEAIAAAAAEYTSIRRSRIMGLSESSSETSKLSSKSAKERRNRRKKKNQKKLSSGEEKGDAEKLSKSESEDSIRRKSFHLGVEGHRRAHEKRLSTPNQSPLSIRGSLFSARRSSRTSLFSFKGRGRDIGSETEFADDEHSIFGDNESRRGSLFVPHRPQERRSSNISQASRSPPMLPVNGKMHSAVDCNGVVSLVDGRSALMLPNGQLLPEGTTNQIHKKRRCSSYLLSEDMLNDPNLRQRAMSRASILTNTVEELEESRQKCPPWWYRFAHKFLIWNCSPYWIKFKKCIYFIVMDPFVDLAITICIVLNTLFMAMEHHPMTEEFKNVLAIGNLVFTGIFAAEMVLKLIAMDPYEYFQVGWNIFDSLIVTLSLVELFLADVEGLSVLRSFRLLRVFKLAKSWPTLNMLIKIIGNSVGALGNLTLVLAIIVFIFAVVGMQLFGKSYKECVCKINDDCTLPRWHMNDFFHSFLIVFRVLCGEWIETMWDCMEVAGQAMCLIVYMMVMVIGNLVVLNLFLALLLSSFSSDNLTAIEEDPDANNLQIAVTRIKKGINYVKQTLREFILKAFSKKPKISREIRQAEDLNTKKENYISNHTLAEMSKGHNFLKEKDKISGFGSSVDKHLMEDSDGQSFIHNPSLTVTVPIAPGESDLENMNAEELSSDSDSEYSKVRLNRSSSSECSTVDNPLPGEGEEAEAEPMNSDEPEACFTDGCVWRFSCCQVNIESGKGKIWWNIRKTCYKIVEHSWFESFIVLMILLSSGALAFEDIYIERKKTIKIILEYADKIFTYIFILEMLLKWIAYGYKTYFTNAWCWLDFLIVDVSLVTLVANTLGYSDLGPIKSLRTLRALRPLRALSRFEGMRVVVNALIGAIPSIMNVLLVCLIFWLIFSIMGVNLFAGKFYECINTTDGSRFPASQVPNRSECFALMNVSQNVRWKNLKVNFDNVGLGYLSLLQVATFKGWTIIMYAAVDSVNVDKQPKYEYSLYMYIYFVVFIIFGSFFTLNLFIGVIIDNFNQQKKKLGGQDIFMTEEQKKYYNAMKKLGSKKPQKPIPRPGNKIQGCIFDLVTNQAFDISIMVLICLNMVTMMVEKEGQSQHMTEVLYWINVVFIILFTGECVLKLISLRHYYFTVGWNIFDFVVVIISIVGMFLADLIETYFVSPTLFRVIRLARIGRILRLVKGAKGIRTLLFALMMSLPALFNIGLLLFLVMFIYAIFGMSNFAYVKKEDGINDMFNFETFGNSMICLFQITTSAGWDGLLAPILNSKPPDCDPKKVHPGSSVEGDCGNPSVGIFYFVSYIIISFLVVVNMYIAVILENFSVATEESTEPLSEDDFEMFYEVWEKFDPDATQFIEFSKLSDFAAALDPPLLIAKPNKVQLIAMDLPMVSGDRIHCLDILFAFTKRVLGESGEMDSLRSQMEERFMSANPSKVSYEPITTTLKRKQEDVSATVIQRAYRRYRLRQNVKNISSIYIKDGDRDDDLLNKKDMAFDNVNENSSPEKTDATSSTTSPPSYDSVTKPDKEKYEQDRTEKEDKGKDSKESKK
IC50 (hNav1.7 [1]),IC50 (hNav1.7 [2]),SMILES
309 nM,144 nM,"CN(C)[C@@H]1C[C@](O)(c2cccc(C(F)(F)F)c2)CC[C@H]1Nc1cc(F)c(S(=O)(=O)Nc2ccncn2)cc1Cl (single isomer, unassigned) [Example 36, formate]"
1.21 nM,1.63 nM,"O=S(=O)(Nc1ccncn1)c1cc(F)c(N[C@H]2CC[C@H](c3cccc(C(F)(F)F)c3)C[C@@H]2N2CCCC2)cc1F [Example 23, 2,5-difluoro-N-(pyrimidin-4-yl)-4-(((1S,2S,4S)-2-(pyrrolidin-1-yl)-4-(3-(trifluoromethyl)-phenyl)cyclohexyl)amino)benzenesulfonamide formate]"
12.2 nM,1.37 nM,"CN(C)[C@@H]1C[C@H](c2ccccc2C(F)(F)F)CC[C@H]1Nc1cc(F)c(S(=O)(=O)Nc2ccncn2)cc1Cl (single isomer, unassigned) [Example 78]"
55.7 nM,3.99 nM,"CN(C)[C@H]1C[C@@H](c2cccc(C(F)(F)F)c2Cl)CC[C@@H]1Oc1cc(F)c(S(=O)(=O)Nc2ccncn2)cc1Cl [Example 92, 5-chloro-4-(((1S,2S,4S)-4-(2-chloro-3-(trifluoromethyl)phenyl)-2-(dimethylamino)-cyclohexyl)oxy)-2-fluoro-N-(pyrimidin-4-yl)benzenesulfonamide]"
84 nM,36.3 nM,"CN(C)CC(=O)N[C@H]1C[C@@H](c2cccc(C(F)(F)F)c2)CC[C@@H]1Nc1cc(F)c(S(=O)(=O)Nc2ccncn2)cc1Cl [Example 28, N-((1S,2S,5S)-2-((2-chloro-5-fluoro-4-(N-(pyrimidin-4-yl)sulfamoyl)phenyl)amino)-5-(3-(trifluoromethyl)phenyl)cyclohexyl)-2-(dimethylamino)acetamide]"
50.6 nM,2.62 nM,"CN(C)[C@H]1C[C@@H](c2cccc(Cl)c2Cl)CC[C@@H]1Oc1cc(F)c(S(=O)(=O)Nc2ccncn2)cc1Cl [Example 75, 5-chloro-4-(((1S,2S,4S)-4-(2,3-dichlorophenyl)-2-(dimethylamino)cyclohexyl)oxy)-2-fluoro-N-(pyrimidin-4-yl)benzenesulfonamide]"
0.657 nM,0.141 nM,"CN(C1CNC1)[C@H]1C[C@@H](c2cccc(C(F)(F)F)c2)CC[C@@H]1Nc1cc(F)c(S(=O)(=O)Nc2ccncn2)cc1Cl [Example 42, 4-(((1S,2S,4S)-2-(azetidin-3-yl(methyl)amino)-4-(3-(trifluoromethyl)phenyl)cyclohexyl)-amino)-5-chloro-2-fluoro-N-(pyrimidin-4-yl)benzenesulfonamide]"
2.07 nM,0.83 nM,"CN1CC(C(=O)N(C)[C@H]2C[C@@H](c3cccc(C(F)(F)F)c3)CC[C@@H]2Nc2cc(F)c(S(=O)(=O)Nc3ccncn3)cc2Cl)C1 [Example 39, N-((1S,2S,5S)-2-((2-Chloro-5-fluoro-4-(N-(pyrimidin-4-yl)sulfamoyl)phenyl)amino)-5-(3-(trifluoromethyl)phenyl)cyclohexyl)-N,1-dimethylazetidine-3-carboxamide]"
82.3 nM,3.34 nM,"CN(C)[C@H]1CN(S(=O)(=O)c2cccc(C(F)(F)F)c2)CC[C@@H]1Nc1cc(F)c(S(=O)(=O)Nc2ccncn2)cc1Cl [Example 73, 5-Chloro-4-(((3S,4S)-3-(dimethylamino)-1-((3-(trifluoromethyl)phenyl)sulfonyl)piperidin-4-yl)amino)-2-fluoro-N-(pyrimidin-4-yl)benzenesulfonamide formate]"
7 nM,1.12 nM,CN(C)[C@H]1C[C@@H](c2cccc(OC3CC3)c2)CC[C@@H]1Nc1cc(F)c(S(=O)(=O)Nc2ccncn2)cc1Cl [Example 43]
78.8 nM,8.61 nM,"CN(C)[C@H]1C[C@@H](c2ccnc(C(F)(F)F)c2)CC[C@@H]1Oc1cc(F)c(S(=O)(=O)Nc2ccncn2)cc1Cl [Example 76, 5-chloro-4-(((1S,2S,4S)-2-(dimethylamino)-4-(2-(trifluoromethyl)pyridin-4-yl)cyclohexyl)oxy)-2-fluoro-N-(pyrimidin-4-yl)benzenesulfonamide formate]"
2.45 nM,0.629 nM,"CN1CC[C@H](C(=O)N(C)[C@H]2C[C@@H](c3cccc(C(F)(F)F)c3)CC[C@@H]2Nc2cc(F)c(S(=O)(=O)Nc3ccncn3)cc2Cl)C1 [Example 33, (S)—N-((1S,2S,5S)-2-((2-chloro-5-fluoro-4-(N-(pyrimidin-4-yl)sulfamoyl)phenyl)amino)-5-(3-(trifluoromethyl)phenyl)cyclohexyl)-N,1-dimethylpyrrolidine-3-carboxamide]"
0.52 nM,0.327 nM,CN(C)[C@H]1C[C@@H](c2ccc(Cl)c(C(F)(F)F)c2)CC[C@@H]1Nc1cc(F)c(S(=O)(=O)Nc2ccncn2)cc1Cl [Example 7]
24.5 nM,1.9 nM,"O=S(=O)(Nc1ccncn1)c1cc(O)c(N[C@H]2CC[C@H](c3cccc(C(F)(F)F)c3)C[C@@H]2N2CCCC2)cc1F [Example 46, 2-Fluoro-5-hydroxy-N-(pyrimidin-4-yl)-4-(((1S,2S,4S)-2-(pyrrolidin-1-yl)-4-(3-(trifluoromethyl)-phenyl)cyclohexyl)amino)benzenesulfonamide formate]"
32.6 nM,1.62 nM,"CN(C)[C@H]1C[C@@H](c2cccc(OC(F)(F)F)c2)CC[C@@H]1Oc1cc(F)c(S(=O)(=O)Nc2ccncn2)cc1F [Example 59, 4-(((1S,2S,4S)-2-(dimethylamino)-4-(3-(trifluoromethoxy)phenyl)cyclohexyl)oxy)-2,5-difluoro-N-(pyrimidin-4-yl)benzenesulfonamide formate]"
8.03 nM,0.905 nM,"CN(C1CCC1)[C@H]1C[C@@H](c2cccc(C(F)(F)F)c2)CC[C@@H]1Nc1cc(F)c(S(=O)(=O)Nc2ccncn2)cc1F [Example 40, 4-(((1S,2S,4S)-2-(cyclobutyl(methyl)amino)-4-(3-(trifluoromethyl)phenyl)cyclohexyl)amino)-2,5-difluoro-N-(pyrimidin-4-yl)benzenesulfonamide formate]"
